We go through seven cell lines from the supplement of paper PMC10307832.

Common to all, as to assay: relative viability (nuclei count vs DMSO), 5 days (fraction); higher = more cells survive
Compound in experiment [1]: CN(c1ncccc1CNc1nc(Nc2ccc3c(c2)CC(=O)N3)ncc1C(F)(F)F)S(C)(=O)=O + CCNC(=O)c1noc(-c2cc(C(C)C)c(O)cc2O)c1-c1ccc(CN2CCOCC2)cc1 [Luminespib] (partner 0.01 µM)
The essentials:
(§1)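 Nuclei were stained with Hoechst during a one-step fixation (final 0.05% Triton X-100, 1% formaldehyde, 1 ug/ml Hoechst) carried out 5 days after dosing, then counted on 4× images. The cells, lung cancer lines in 1536-well plates, had been dosed by pin tool the day after seeding with one drug alone or a fixed anchor-drug dose plus five library-drug doses (not always all listed) in √10 steps. Relative viability is the nuclei count in treated wells divided by that in vehicle wells, and each value is the median of duplicate plates.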

Compound in experiment [2]: CN(c1ncccc1CNc1nc(Nc2ccc3c(c2)CC(=O)N3)ncc1C(F)(F)F)S(C)(=O)=O + CS(=O)(=O)CCNCc1ccc(-c2ccc3ncnc(Nc4ccc(OCc5cccc(F)c5)c(Cl)c4)c3c2)o1 [Lapatinib] (partner 2 µM)
The essentials: as §1

Compound in experiment [3]: CN(c1ncccc1CNc1nc(Nc2ccc3c(c2)CC(=O)N3)ncc1C(F)(F)F)S(C)(=O)=O + Nc1ncn([C@H]2C[C@H](O)[C@@H](CO)O2)c(=O)n1 [Decitabine] (partner 2 µM)
The method, boiled down: as §1

Compound in experiment [4]: CN(c1ncccc1CNc1nc(Nc2ccc3c(c2)CC(=O)N3)ncc1C(F)(F)F)S(C)(=O)=O + O=C(c1cc(Cc2n[nH]c(=O)c3ccccc23)ccc1F)N1CCN(C(=O)C2CC2)CC1 [Olaparib] (partner 8 µM)
The method, boiled down:
as §1

NCI-H2170: the relative viability in experiment [1] (first compound 0.01 µM) turned out to be 0.722; in experiment [1] (first compound 0.03162 µM), 0.799; in experiment [1] (first compound 0.1 µM), 0.707; in experiment [1] (first compound 0.3162 µM), 0.749; in experiment [1] (first compound 1 µM), 0.424; in experiment [2] (first compound 0.01 µM), 0.263. Moreover, the relative viability was 0.254 in experiment [2] (first compound 0.03162 µM); 0.267 in experiment [2] (first compound 0.1 µM); 0.276 in experiment [2] (first compound 1 µM); 0.528 in experiment [3] (first compound 0.01 µM); 0.463 in experiment [3] (first compound 0.03162 µM); 0.417 in experiment [3] (first compound 0.1 µM). The relative viability in experiment [3] (first compound 0.3162 µM) is 0.459; in experiment [3] (first compound 1 µM), 0.448; in experiment [4] (first compound 0.01 µM) it was 0.684; in experiment [4] (first compound 0.03162 µM), 0.652; in experiment [4] (first compound 0.1 µM), 0.672; in experiment [4] (first compound 0.3162 µM), 0.604. Also, in experiment [4] (first compound 1 µM), the relative viability is 0.521.
Take PC-3 [JPC-3]: the relative viability worked out at 0.719 in experiment [1] (first compound 0.01 µM); 0.788 in experiment [1] (first compound 0.03162 µM); 0.792 in experiment [1] (first compound 0.1 µM); 0.665 in experiment [1] (first compound 0.3162 µM); 0.636 in experiment [1] (first compound 1 µM); 0.441 in experiment [2] (first compound 0.01 µM). Further, the relative viability in experiment [2] (first compound 0.03162 µM) stood at 0.395; in experiment [2] (first compound 0.1 µM), 0.446; in experiment [2] (first compound 0.3162 µM), 0.471; in experiment [2] (first compound 1 µM) it was 0.432; in experiment [3] (first compound 0.01 µM) it was 0.826; in experiment [3] (first compound 0.1 µM) it was 0.821. Further, the relative viability in experiment [3] (first compound 0.3162 µM) was 0.884; in experiment [3] (first compound 1 µM), 0.834; in experiment [4] (first compound 0.01 µM) it was 1.13; in experiment [4] (first compound 0.1 µM), 1.05; in experiment [4] (first compound 0.3162 µM) it was 1.08; in experiment [4] (first compound 1 µM), 1.04.
NCI-H1993: the relative viability is 0.859 in experiment [1] (first compound 0.01 µM); 0.849 in experiment [1] (first compound 0.03162 µM); 0.752 in experiment [1] (first compound 0.1 µM); 0.755 in experiment [1] (first compound 0.3162 µM); 0.65 in experiment [1] (first compound 1 µM); 0.804 in experiment [2] (first compound 0.01 µM). The relative viability in experiment [2] (first compound 0.03162 µM) stood at 0.91; in experiment [2] (first compound 0.1 µM), 0.82; in experiment [2] (first compound 0.3162 µM) it was 0.889; in experiment [2] (first compound 1 µM), 0.769; in experiment [3] (first compound 0.01 µM), 0.624; in experiment [3] (first compound 0.03162 µM), 0.609. Besides, the relative viability turned out to be 0.56 in experiment [3] (first compound 0.1 µM); 0.574 in experiment [3] (first compound 0.3162 µM); 0.605 in experiment [3] (first compound 1 µM); 1.13 in experiment [4] (first compound 0.01 µM); 0.977 in experiment [4] (first compound 0.03162 µM); 1 in experiment [4] (first compound 0.1 µM). The relative viability is 1.1 in experiment [4] (first compound 0.3162 µM) and 0.92 in experiment [4] (first compound 1 µM).
On to NCI-H358, for which the relative viability amounted to 0.292 in experiment [1] (first compound 0.01 µM); 0.465 in experiment [1] (first compound 0.03162 µM); 0.397 in experiment [1] (first compound 0.1 µM); 0.247 in experiment [1] (first compound 0.3162 µM); 0.214 in experiment [1] (first compound 1 µM); 0.449 in experiment [2] (first compound 0.01 µM). Further, the relative viability was determined as 0.414 in experiment [2] (first compound 0.03162 µM); 0.42 in experiment [2] (first compound 0.1 µM); 0.431 in experiment [2] (first compound 0.3162 µM); 0.397 in experiment [2] (first compound 1 µM); 0.195 in experiment [3] (first compound 0.01 µM); 0.221 in experiment [3] (first compound 0.03162 µM). Besides, the relative viability in experiment [3] (first compound 0.1 µM) was determined as 0.251; in experiment [3] (first compound 0.3162 µM), 0.221; in experiment [3] (first compound 1 µM), 0.183; in experiment [4] (first compound 0.01 µM), 0.61; in experiment [4] (first compound 0.03162 µM), 0.57; in experiment [4] (first compound 0.1 µM), 0.573. Besides, the relative viability worked out at 0.532 in experiment [4] (first compound 0.3162 µM) and 0.416 in experiment [4] (first compound 1 µM).
Consider NCI-H1915, for which the relative viability in experiment [1] (first compound 0.01 µM) worked out at 0.821; in experiment [1] (first compound 0.03162 µM), 0.636; in experiment [1] (first compound 0.1 µM), 0.711; in experiment [1] (first compound 0.3162 µM), 0.729; in experiment [1] (first compound 1 µM) it was 0.729; in experiment [2] (first compound 0.01 µM) it was 0.99. For the same cell line, the relative viability in experiment [2] (first compound 0.03162 µM) came to 0.919; in experiment [2] (first compound 0.1 µM) it was 0.912; in experiment [2] (first compound 0.3162 µM), 0.93; in experiment [2] (first compound 1 µM) it was 0.969; in experiment [3] (first compound 0.01 µM), 0.278; in experiment [3] (first compound 0.03162 µM), 0.258. Also, the relative viability in experiment [3] (first compound 0.1 µM) turned out to be 0.264; in experiment [3] (first compound 0.3162 µM), 0.247; in experiment [3] (first compound 1 µM), 0.256; in experiment [4] (first compound 0.01 µM) it was 0.272; in experiment [4] (first compound 0.03162 µM), 0.241; in experiment [4] (first compound 0.1 µM), 0.262. For the same cell line, the relative viability amounted to 0.264 in experiment [4] (first compound 0.3162 µM) and 0.285 in experiment [4] (first compound 1 µM).
Turning to RERF-LC-KJ, the relative viability in experiment [1] (first compound 0.01 µM) came out at 1.16; in experiment [1] (first compound 0.03162 µM), 1.34; in experiment [1] (first compound 0.1 µM) it was 1.17; in experiment [1] (first compound 0.3162 µM), 1.28; in experiment [1] (first compound 1 µM) it was 1.19; in experiment [2] (first compound 0.01 µM) it was 0.926. For the same cell line, the relative viability was 0.988 in experiment [2] (first compound 0.03162 µM); 0.854 in experiment [2] (first compound 0.1 µM); 0.886 in experiment [2] (first compound 0.3162 µM); 0.91 in experiment [2] (first compound 1 µM); 0.651 in experiment [3] (first compound 0.01 µM); 0.71 in experiment [3] (first compound 0.03162 µM). Besides, the relative viability in experiment [3] (first compound 0.1 µM) came to 0.645; in experiment [3] (first compound 0.3162 µM), 0.793; in experiment [3] (first compound 1 µM), 0.764; in experiment [4] (first compound 0.01 µM), 0.983; in experiment [4] (first compound 0.03162 µM) it was 0.945; in experiment [4] (first compound 0.1 µM) it was 0.97. The relative viability in experiment [4] (first compound 0.3162 µM) came out at 0.849; in experiment [4] (first compound 1 µM) it was 0.927.
Turning to LOU-NH91, the relative viability in experiment [1] (first compound 0.01 µM) worked out at 0.322; in experiment [1] (first compound 0.03162 µM), 0.366; in experiment [1] (first compound 0.1 µM), 0.313; in experiment [1] (first compound 0.3162 µM), 0.351; in experiment [1] (first compound 1 µM) it was 0.355; in experiment [2] (first compound 0.01 µM) it was 0.777. The relative viability in experiment [2] (first compound 0.03162 µM) was 0.714; in experiment [2] (first compound 0.1 µM), 0.73; in experiment [2] (first compound 0.3162 µM) it was 0.743; in experiment [2] (first compound 1 µM), 0.741; in experiment [3] (first compound 0.01 µM), 0.863; in experiment [3] (first compound 0.03162 µM), 0.832. Moreover, the relative viability in experiment [3] (first compound 0.1 µM) was 0.812; in experiment [3] (first compound 0.3162 µM) it was 0.844; in experiment [3] (first compound 1 µM), 0.839; in experiment [4] (first compound 0.01 µM), 0.888; in experiment [4] (first compound 0.03162 µM), 0.92; in experiment [4] (first compound 0.1 µM) it was 0.883. The relative viability was 0.972 in experiment [4] (first compound 0.3162 µM) and 0.858 in experiment [4] (first compound 1 µM).
